# Laboratory results taken from article PMC13401508 (Pharmacological research, 2026).
# Assays:
# [1] = tested on: CYP 1A2, 2A6, 2B6, 2C8, 2C9, 2C19, 2D6, 2E1, 3A4_M, 3A4_T (the others); experiment: Drug-substrate based CYP inhibition, other isoforms of the panel; type: in vitro ADME; settings: human liver microsomes; isoforms of the panel not given
# Procedure: (§1) IVMT-Rx-4 was incubated with selective probe substrates of each CYP isoform in the presence of human liver microsomes. The formation of metabolite was quantified using LC-MS/MS methods. The extent of inhibition was assessed by calculating the remaining enzyme activity and percent inhibition based on analyte-to-internal standard area ratios, using the following equations:
# (§2) Area Ratio = Peak AreaAnalyte / Peak AreaInternal Standard
# (§3) Remaining Activity (%) = Area Ratiotest compound / Area Ratiovehicle ×100
# (§4) Inhibition (%) = 100 ̶ Remaining Activity (%)
# [2] = tested on: CYP1A2, 2A6, 2B6, 2C8, 2C9, 2C19, 2D6 (the other isoforms of the panel); experiment: as above; type: in vitro ADME; settings: human liver microsomes; isoforms of the panel not given; read-out: Drug-substrate based CYP Inhibition, others
# Procedure: as §1, §2, §3, §4
# CXCL5 [3] = experiment: CXCL5 mRNA by qRT-PCR in murine BM-MSCs (WT and mda-9 KO); type: cell-based, C57BL/6 mice; settings: murine PDGF-AA 10 ng/ML, 25 μM, 24 hrs
# Procedure: Total bone marrow cells were collected from 6 to 8 weeks male MDA-9/Syntenin^WT (mda-9^WT) and global MDA-9/Syntenin knockout (mda-9^−/−) mice as previously described in Das et al.. mda-9^WT and mda-9^−/− bone marrow derived mesenchymal stromal cells were isolated using a previously outlined protocol.
# (§5) Fig. 3. […] CXCL5 mRNA expression was measured by qRT-PCR. […] Secreted CXCL5 in CM was measured by ELISA (n = 3 ± SD; * p < 0.05). […] CXCL5 mRNA expression was measured by qRT-PCR (n = 3 ± SD; * p < 0.05).
# CXCL5 [4] = experiment: Secreted CXCL5 by ELISA in HS5 conditioned media; type: cell-based, human; settings: PDGF-AA activated HS5 cells, 24 hrs
# Procedure: Human and mouse specific CXCL5, PDGF-AA ELISA kits were obtained from R&D Systems, USA. All ELISAs were performed using the manufacturer’s protocol.
# as §5
# PDGF-AA = PDGF-AA mRNA expression by qRT-PCR in PC cells; type: cell-based, human; settings: 24 hrs
# Procedure: Total RNA was extracted from cells using miRNeasy kits (Qiagen), and cDNA was prepared as described previously. Gene specific TaqMan Probes were obtained from Applied Bio system, Thermo-Fisher, USA. qRT-PCR was performed using an ABI Quant Studio real-time PCR.
# Fig. 2. […] NF-κB activity was measured by absorbance at 450 nm (n = 3 ± SD; * p < 0.05). […] C) PDGF-AA protein levels were determined in the three PC cell line-derived conditioned media by ELISA. In both panels: n = 3 ± SD; * p < 0.05.
# RM1-BM-Luc cells = experiment: Experimental bone metastasis, intracardiac RM1-BM-Luc; type: in vivo, C57BL/6 mice
# Procedure: For experimental bone metastasis experiments, 3 × 10^4 RM1-BM-Luc cells were injected by the intracardiac route to develop bone-metastases in 6- to 8-week-old male C57BL/6 mice as described previously. Incidence of metastasis was monitored using Bioluminescence imaging, as described previously.
# Fig. 4. […] RM1-BM-Luc cells were injected through the intracardiac (I.C.) route into C57BL/6 mice to establish experimental bone metastases. […] A) BLI imaging was performed on day 15 and the number of bone metastasis positive mice were graphically represented as metastatic events. B) Calculated ROI values are graphically represented (n = 6 ± SEM; * p < 0.05). C) Ex vivo BLI image of representative bones from both vehicle and IVMT-Rx-4 treated animals. D) Representative ex vivo images and (E) number of animals positive for metastases in the lungs, liver, brain and spleen for each experimental group ae presented.
# [5] = Visible toxicity in animals; settings: in vivo
# [6] = Particle size distribution (PSD); type: physicochemical; settings: wet method, water
# Procedure: About 15 mg of sample was pre-dispersed using 1 mL of water. After mixing completely, PSD was analyzed with the parameters in Table below.
# [7] = Solubility study in bio-relevant media, buffers and solvents; type: physicochemical
# [8] = tested on: PC3-ML, ARCaP-M, C4–2B, RM1-BM and TRAMP-C2 cells; experiment: Boyden chamber / Transwell Matrigel invasion assay; type: cell-based, human and murine; settings: 25 μM, 18 hrs, all five cell lines
# Procedure: Boyden chamber assays were performed using Corning® BioCoat® Matrigel® Invasion Chambers obtained from Corning Inc., USA. In brief, cells were seeded on the Matrigel-coated upper chamber and treated with IVMT-Rx-4. Invaded cells were fixed, stained and counted after 18 hrs. as previously described.
# (§6) Fig. 1. Primary characterization of IVMT-Rx-4. A) Chemical structure (upper panel) and synthesis scheme (lower panel). […] All proteins were extracted, and Western blotting was performed immediately after heating. Quantifications were obtained in the absence (control) or presence of IVMT-Rx-4 and values are presented as percentage of RT (room temperature) normalized for the experimental groups (control, IVMT-Rx-4). SOD (Superoxide dismutase) was used as an endogenous control. […] Colonies were stained with crystal violet and counted (n = 3 ± SD; ns: non-significant). […] Invaded cells were stained with crystal violet. Top panel: representative photograph of invaded cells under different experimental settings. Bottom panel: graphical representation of number of invaded cells/field for different cell lines (n = 3 ± SD; * p < 0.05).
# YAP = experiment: Western blot, PDGF-AA activated HS5 cells: YAP; type: cell-based, human; settings: PDGF-AA 10 ng/ML, 25 μM, 24 hrs
# [9] = tested on: HS5, RWPE-1, C4–2B, PC3-ML, ARCaP-M and RM1-BM cells; experiment: Colony formation (clonal) assay; type: cell-based, human and murine; settings: 50 μM, six repeated doses over a two-week period, tumor and non-tumor cells
# Procedure: 200 cells/well were seeded in triplicate in 6-well plates. […] The colonies were fixed with ice-cold Methanol and stained with 0.5% crystal violet and counted.
# as §6
# CYP3A4 = target: T1, CYP3A4 (Homo sapiens, UniProt P08684); experiment: Drug-substrate based CYP inhibition, 3A4; type: in vitro ADME; settings: human liver microsomes
# T1 construct: in the presence of human liver microsomes; from tissue; host or cells: human liver microsomes
# Procedure: as §1, §2, §3, §4
# [10] = tumor-bearing animals, 30 mg/kg I.P., vs DMSO
# T1 sequence (P08684 whole entry): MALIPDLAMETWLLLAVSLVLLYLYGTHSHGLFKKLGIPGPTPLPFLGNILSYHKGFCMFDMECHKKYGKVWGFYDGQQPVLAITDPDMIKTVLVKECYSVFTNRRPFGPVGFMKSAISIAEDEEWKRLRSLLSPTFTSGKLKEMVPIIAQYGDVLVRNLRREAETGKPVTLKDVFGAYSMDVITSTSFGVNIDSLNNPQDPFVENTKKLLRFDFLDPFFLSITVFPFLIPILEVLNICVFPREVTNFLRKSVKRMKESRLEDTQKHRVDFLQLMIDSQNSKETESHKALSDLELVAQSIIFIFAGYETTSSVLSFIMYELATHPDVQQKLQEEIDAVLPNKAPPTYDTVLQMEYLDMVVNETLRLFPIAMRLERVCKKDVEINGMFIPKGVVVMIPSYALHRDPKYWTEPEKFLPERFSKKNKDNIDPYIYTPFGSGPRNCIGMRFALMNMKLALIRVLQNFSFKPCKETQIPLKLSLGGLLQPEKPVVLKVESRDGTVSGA
smiles,measurement,setting,value
Cc1cc(NC(=O)CCc2nnc(-c3ccccc3)o2)c(C)cc1N [IVMT-Rx-4],"Drug-substrate based CYP Inhibition, others",[1],no inhibitory effects
same,IC50,[2],> 10 µM
same,CXCL5 mRNA expression,CXCL5 [3]; mBM-MSC WT,CXCL5 suppression occurred exclusively in mBM-MSC^WT
same,CXCL5 mRNA expression,CXCL5 [3]; mBM-MSC mda-9 KO,not in mBM-MSC^mda−9 KO cells
same,CXCL5 protein level,CXCL5 [4],significantly decreased
same,PDGF-AA levels in mda-9 knockout clones,PDGF-AA; PC3-ML mda-9 KO and ARCaP-M mda-9 KO,did not further reduce PDGF-AA levels
same,PDGF-AA mRNA level,"PDGF-AA; PC3-ML, ARCaP-M and C4–2B cells, 25 μM or 50 μM",decreased PDGF-AA
same,animals with bone metastases,"RM1-BM-Luc cells; 30 mg/kg I.P. 3X a week for two weeks, fourteen days post-intracardiac injection, BLI",0 out of 6
same,Ex Vivo Imaging; Positive for tumor cells (n=6) Brain,"RM1-BM-Luc cells; 30 mg/kg I.P., 6 doses",0
same,Ex Vivo Imaging; Positive for tumor cells (n=6) Liver,"RM1-BM-Luc cells; 30 mg/kg I.P., 6 doses",2
same,Ex Vivo Imaging; Positive for tumor cells (n=6) Lungs,"RM1-BM-Luc cells; 30 mg/kg I.P., 6 doses",6
same,Ex Vivo Imaging; Positive for tumor cells (n=6) Spleen,"RM1-BM-Luc cells; 30 mg/kg I.P., 6 doses",0
same,"metastasis to the liver, brain and spleen, as well as to the bones","RM1-BM-Luc cells; 30 mg/kg I.P., ex-vivo imaging",partially prevented metastasis
same,CXCL5 in the serum of mice,RM1-BM-Luc cells; [10],reduced expression
same,PDGF-AA in the serum of mice,RM1-BM-Luc cells; [10],reduced expression
same,visible toxicity in animals,[5],without provoking any visible toxicity
same,"Dv [90], average value",[6],58.6 μm
same,"solubility in FaSSIF, FeSSIF and SIF","[7]; FaSSIF, FeSSIF and SIF",low solubility
same,solubility in organic solvents,"[7]; MeOH, EtOH, CH2Cl2, Acetone and MeCN",relatively good solubility
same,solubility in SGF,[7]; SGF,relative high solubility
same,stability in SGF and pH 1.2 buffer,"[7]; after the solubility test, both media",degradation was observed
same,solubility in hexane,[7]; hexane,almost insoluble
same,pH dependence of solubility,[7]; solubility increased with a decrease of pH,pH dependent
same,solubility in water,[7]; water,low solubility
same,cellular invasion,[8],effectively suppressed cellular invasion
same,phosphorylation of YAP at ser127,YAP,promoted
same,cell proliferation (colony formation),[9],did not inhibit cell proliferation
same,IC50,CYP3A4,~10 µM
